Reference: publication PMC8654833 (Scientific Reports, 2021)
Values joined by “and” are separate entries in the source; they are usually repeats but may differ in a detail not shown here. Equal values may be shown once.

Tests used:
[1] = Stability in vehicle at 37 °C by LC-MS; assay type: physicochemical; conditions: vehicle (20% DMSO in distilled water), data not shown
[2] = target: T1, 5-HT7 (Homo sapiens, UniProt P34969); experiment: Radioligand binding competition dose-response (Euroscreen), 5-HT7
T1 construct: Euroscreen FAST (contract assay)
Experimental: (§1) This study included binding assays (87 GPCR targets), measured as % of binding inhibition of a reference radioligand, as well as uptake and enzyme assays (19 targets), the latter measured as % inhibition of control enzyme activity. […] It was performed by radioligand binding competition by Euroscreen (Euroscreen FAST, Belgium). The following nanomolar concentrations were tested in duplicate: 0.001, 0.01, 0.1, 1, 10, 100, 1000, 10,000. Dose–response curves were fitted with the least squares method. IC50 results are shown as pIC50, corresponding to the negative log10 of IC50 in molar.

[3] = target: Ca^2+ channel, ds; experiment: Radioligand binding competition dose-response (Euroscreen), Ca2+ channel diltiazem site
Experimental: as §1

[4] = in vivo; conditions: CD-1, mouse, po, 10 mg/kg
[5] = target: T2, NET (Homo sapiens, UniProt P23975); experiment: Radioligand binding competition dose-response (Euroscreen), norepinephrine transporter; conditions: dose-response study, maximal concentration 10 µM, 3H]nisoxetine
T2 construct: Euroscreen FAST (contract assay)
Experimental: as §1

[6] = target: T3, 5-HT1A (Homo sapiens, UniProt P08908); experiment: Single-concentration radioligand binding screen (Eurofins Cerep), 5-HT1A; conditions: single concentration 10 µM screen, [3H]8-OH-DPAT
T3 construct: Euroscreen FAST (contract assay)
T3 sequence (P08908 1-422): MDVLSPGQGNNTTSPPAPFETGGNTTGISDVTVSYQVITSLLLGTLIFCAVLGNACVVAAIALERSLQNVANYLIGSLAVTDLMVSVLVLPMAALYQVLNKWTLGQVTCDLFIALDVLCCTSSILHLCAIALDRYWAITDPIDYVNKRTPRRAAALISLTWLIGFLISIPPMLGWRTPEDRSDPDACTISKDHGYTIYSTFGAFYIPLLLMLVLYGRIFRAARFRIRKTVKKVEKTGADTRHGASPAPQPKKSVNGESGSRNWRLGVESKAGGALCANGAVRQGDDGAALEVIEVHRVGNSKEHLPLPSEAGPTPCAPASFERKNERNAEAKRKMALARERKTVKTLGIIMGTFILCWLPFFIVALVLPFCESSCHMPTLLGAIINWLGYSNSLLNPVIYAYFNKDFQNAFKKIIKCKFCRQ
Experimental: as §1

[7] = target: T4, 5-HT5A (Homo sapiens, UniProt P47898); experiment: Radioligand binding competition dose-response (Euroscreen), 5-HT5A
T4 construct: Euroscreen FAST (contract assay)
Experimental: as §1

[8] = target: T5, 5-HT2B (Homo sapiens, UniProt P41595); conditions: dose-response study, maximal concentration 10 µM, [3H]mesulergine
[9] = system: mitral valve; experiment: Mitral valve thickness by histology (hematoxylin/eosin); assay type: in vivo; conditions: Sod1^G86R mice, 3 mg/kg/d; vehicle 57.7 µm
Experimental: To this aim, we measured mitral valve thickness using histology (Fig. 3). […] The lack of beneficial effect of BW on survival and motor function is not due to the developpement of valvulopathy nor cardiac failure. Thus, BW is not protective in Sod1^G86R mice independently of any potential cardiotoxicity.
After dissection and rinse with PBS 1X, hearts were fixed for 72 h in formaldehyde 4% solution. After paraffin inclusion, cuts of 4 µm thickness were made. Hematoxylin/eosin staining was performed on these cuts. Inclusion and staining were performed by the department of histopathology and embyology of the mouse clinical institute (ICS, Illkirch-Graffenstaden). Valve imaging was performed with a Leica DFC425C camera mounted on a microscope Leica DM750, at × 10 magnification (cat# 506228, 10x/0.25 HI PLAN ∞/−), with LAS V4.8 software (Leica Microsystems). […] Average thickness was determined by rapporting the area on the length of the leaflet.

[10] = target: T5, 5-HT2B; experiment: biochemical; conditions: read-out: %Binding inhibition at 10 µM, dose-response study, maximal concentration 10 µM, [3H]mesulergine
[11] = target: T2, NET; experiment: Single-concentration radioligand binding screen (Eurofins Cerep), norepinephrine transporter; conditions: single concentration 10 µM screen, 3H]nisoxetine
Experimental: as §1

[12] = Plasma pharmacokinetics after IV, PO or SC administration; conditions: for half-life / bioavailability: in vivo
[13] = target: T6, 5-HT2C (Homo sapiens, UniProt P28335); experiment: Single-concentration radioligand binding screen (Eurofins Cerep), 5-HT2C; conditions: single concentration 10 µM screen, [3H]mesulergine
T6 construct: Euroscreen FAST (contract assay)
T6 sequence (P28335 33-458): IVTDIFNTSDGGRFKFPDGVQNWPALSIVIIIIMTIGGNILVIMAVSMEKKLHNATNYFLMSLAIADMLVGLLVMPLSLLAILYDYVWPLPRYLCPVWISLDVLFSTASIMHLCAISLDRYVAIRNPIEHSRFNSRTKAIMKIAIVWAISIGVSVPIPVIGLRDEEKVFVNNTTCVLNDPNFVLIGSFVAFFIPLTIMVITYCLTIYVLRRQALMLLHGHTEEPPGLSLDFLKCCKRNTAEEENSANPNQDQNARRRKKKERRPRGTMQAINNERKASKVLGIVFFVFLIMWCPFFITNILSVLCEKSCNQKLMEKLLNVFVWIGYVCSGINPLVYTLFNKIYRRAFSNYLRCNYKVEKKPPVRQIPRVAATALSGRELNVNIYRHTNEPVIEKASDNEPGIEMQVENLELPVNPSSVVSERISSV
Experimental: as §1

[14] = dose-response study, maximal concentration 10 µM, [3H]LSD
[15] = IV 2 mg/kg, individual mice n1-n3, 2 mg/kg
[16] = PO 10 mg/kg, individual mice n1-n3, 10 mg/kg
[17] = SC 10 mg/kg, individual mice n1-n3, 10 mg/kg

T5 sequence (P41595 whole entry, species assumed): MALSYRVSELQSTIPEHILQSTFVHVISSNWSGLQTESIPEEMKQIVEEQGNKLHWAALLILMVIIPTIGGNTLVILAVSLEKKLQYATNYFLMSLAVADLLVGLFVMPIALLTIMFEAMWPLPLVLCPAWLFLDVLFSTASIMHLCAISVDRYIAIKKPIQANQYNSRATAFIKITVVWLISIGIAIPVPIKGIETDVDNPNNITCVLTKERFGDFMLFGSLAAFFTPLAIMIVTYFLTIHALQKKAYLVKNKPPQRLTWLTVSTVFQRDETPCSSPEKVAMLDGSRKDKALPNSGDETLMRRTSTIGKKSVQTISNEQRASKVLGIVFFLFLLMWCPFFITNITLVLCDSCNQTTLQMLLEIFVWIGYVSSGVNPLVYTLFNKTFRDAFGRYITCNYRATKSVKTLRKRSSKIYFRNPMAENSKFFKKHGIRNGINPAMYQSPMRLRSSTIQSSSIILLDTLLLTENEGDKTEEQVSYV
T2 sequence (P23975 whole entry): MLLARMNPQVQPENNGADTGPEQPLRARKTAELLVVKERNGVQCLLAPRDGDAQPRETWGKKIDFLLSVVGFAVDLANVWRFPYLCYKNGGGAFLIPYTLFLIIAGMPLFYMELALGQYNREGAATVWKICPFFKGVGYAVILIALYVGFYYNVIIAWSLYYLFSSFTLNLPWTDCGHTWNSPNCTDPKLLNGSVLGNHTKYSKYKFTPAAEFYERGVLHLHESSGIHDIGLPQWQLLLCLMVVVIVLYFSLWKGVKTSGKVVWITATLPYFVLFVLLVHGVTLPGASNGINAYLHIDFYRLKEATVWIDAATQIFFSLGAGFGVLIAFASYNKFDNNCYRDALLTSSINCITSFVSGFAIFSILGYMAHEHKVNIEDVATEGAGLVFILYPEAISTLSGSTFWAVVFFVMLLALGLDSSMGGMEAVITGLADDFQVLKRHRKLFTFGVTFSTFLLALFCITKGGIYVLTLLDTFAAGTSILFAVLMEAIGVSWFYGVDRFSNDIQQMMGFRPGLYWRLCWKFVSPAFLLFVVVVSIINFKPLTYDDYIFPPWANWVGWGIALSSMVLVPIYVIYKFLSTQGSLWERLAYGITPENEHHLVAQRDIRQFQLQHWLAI
T4 sequence (P47898 whole entry, species assumed): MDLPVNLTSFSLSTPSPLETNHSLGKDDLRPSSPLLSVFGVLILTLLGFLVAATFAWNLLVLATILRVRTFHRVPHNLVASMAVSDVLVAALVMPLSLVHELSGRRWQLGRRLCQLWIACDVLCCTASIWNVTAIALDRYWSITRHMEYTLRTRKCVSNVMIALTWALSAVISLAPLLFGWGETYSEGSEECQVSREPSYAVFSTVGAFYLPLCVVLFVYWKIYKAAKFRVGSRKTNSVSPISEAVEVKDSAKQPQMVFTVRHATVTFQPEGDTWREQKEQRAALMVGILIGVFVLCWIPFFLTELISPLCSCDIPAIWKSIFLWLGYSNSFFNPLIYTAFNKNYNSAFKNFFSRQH
T1 sequence (P34969 whole entry, species assumed): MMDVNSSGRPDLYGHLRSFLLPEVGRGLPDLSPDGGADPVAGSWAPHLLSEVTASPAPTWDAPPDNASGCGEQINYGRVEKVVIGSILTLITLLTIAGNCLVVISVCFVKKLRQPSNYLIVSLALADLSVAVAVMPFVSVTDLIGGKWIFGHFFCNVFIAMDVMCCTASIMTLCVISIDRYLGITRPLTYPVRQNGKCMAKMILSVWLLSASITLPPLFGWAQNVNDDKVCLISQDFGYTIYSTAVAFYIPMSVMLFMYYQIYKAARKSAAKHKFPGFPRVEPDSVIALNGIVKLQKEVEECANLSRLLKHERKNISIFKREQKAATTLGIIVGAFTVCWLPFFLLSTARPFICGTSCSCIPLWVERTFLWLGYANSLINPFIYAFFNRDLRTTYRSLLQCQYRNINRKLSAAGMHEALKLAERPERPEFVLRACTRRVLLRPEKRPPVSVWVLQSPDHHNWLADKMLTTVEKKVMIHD

With `CC(N)Cc1c[nH]c2ccc(OCc3cccs3)cc12` (centres unmarked) [BW, 1-[5-(thiophen-2-ylmethoxy)-1H-indol-3-yl]propan-2-amine] the “stable at 37 °C in vehicle” value [1] was “at least 2 months”, the IC50 [2] was 1020 nM and the inhibition at 10 µM [2, 14] was 91.8%. The pIC50 ([3]; [3H]diltiazem competition) was 6.11, the “%Binding inhibition at 10 µM” value ([3]; dose-response study, maximal concentration 10 µM, [3H]diltiazem) was 35.80% and the Tmax [4] was 30 min. The inhibition at 10 µM [5] was 74.4%, the inhibition at 10 µM [6] was 91.8% and the IC50 [7] was 1380 nM. The inhibition at 10 µM [7, 14] was 84.3%, the “%Binding inhibition at 10 µM” value [8] was 103.54% and the mitral valve thickness [9] was 60.2 µm. For the same molecule, the inhibition at 10 µM [10] was 100%, the inhibition at 10 µM [11] was 68.7% and the “plasma detection at 24 h” value ([12]; 24 h after a single administration (data not shown)) was “no compound could be detected”. For the same molecule, the half-life ([12]; CD-1, mouse, iv, 2 mg/kg, T1/2, IV 2 mg/kg, individual mice n1-n3) was 58.8 min, the half-life ([12]; CD-1, mouse, iv, 2 mg/kg, T1/2, IV 2 mg/kg, mean) was 55.8 min and the bioavailability ([12]; CD-1, mouse, po, 10 mg/kg, PO 10 mg/kg) was 4.72%. It also gave a half-life ([12]; CD-1, mouse, po, 10 mg/kg, T1/2, PO 10 mg/kg, mean) of 153 min, a bioavailability ([12]; CD-1, mouse, sc, 10 mg/kg, SC 10 mg/kg) of 35% and a half-life ([12]; CD-1, mouse, sc, 10 mg/kg, T1/2, SC 10 mg/kg, individual mice n1-n3) of 68.4 min. It also gave a half-life ([12]; CD-1, mouse, sc, 10 mg/kg, T1/2, SC 10 mg/kg, mean) of 82.2 min, an AUC0-inf ([12]; CD-1, mouse, plasma, iv, 2 mg/kg, AUC0-inf, IV 2 mg/kg, individual mice n1-n3) of 289 ng·h/mL and an AUC0-inf ([12]; CD-1, mouse, plasma, iv, 2 mg/kg, AUC0-inf, IV 2 mg/kg, mean) of 236 ng·h/mL. The C0 ([12]; CD-1, mouse, plasma, iv, 2 mg/kg, C0, IV 2 mg/kg, individual mice n1-n3) was 406 ng/mL, the C0 ([12]; CD-1, mouse, plasma, iv, 2 mg/kg, C0, IV 2 mg/kg, mean) was 354 ng/mL and the AUC0-inf ([12]; CD-1, mouse, plasma, po, 10 mg/kg, AUC0-inf, PO 10 mg/kg, individual mice n1-n3) was 239 ng·h/mL. The AUC0-inf ([12]; CD-1, mouse, plasma, po, 10 mg/kg, AUC0-inf, PO 10 mg/kg, mean) was 278 ng·h/mL, the Cmax ([12]; CD-1, mouse, plasma, po, 10 mg/kg, Cmax, PO 10 mg/kg, mean) was 77 ng/mL and the Tmax ([12]; CD-1, mouse, plasma, po, 10 mg/kg, Tmax, PO 10 mg/kg, mean) was 34.8 min. The AUC0-inf ([12]; CD-1, mouse, plasma, sc, 10 mg/kg, AUC0-inf, SC 10 mg/kg, individual mice n1-n3) was 2030 ng·h/mL, the AUC0-inf ([12]; CD-1, mouse, plasma, sc, 10 mg/kg, AUC0-inf, SC 10 mg/kg, mean) was 2070 ng·h/mL and the Cmax ([12]; CD-1, mouse, plasma, sc, 10 mg/kg, Cmax, SC 10 mg/kg, individual mice n1-n3) was 1100 ng/mL. The Cmax ([12]; CD-1, mouse, plasma, sc, 10 mg/kg, Cmax, SC 10 mg/kg, mean) was 1020 ng/mL, the Tmax ([12]; CD-1, mouse, plasma, sc, 10 mg/kg, Tmax, SC 10 mg/kg, mean) was 11.4 min and the AUC0-inf [12, 15] was 221 ng·h/mL and 199 ng·h/mL. For the same molecule, the AUCExtra [12, 15] was 4.8% and 3.5% and 4.5%, the C0 [12, 15] was 290 ng/mL and 366 ng/mL and the T1/2 [12, 15] was 50.4 min and 58.8 min. For the same molecule, the AUCExtra ([12]; IV 2 mg/kg, mean) was 4.3%, the AUC0-inf [12, 16] was 294 ng·h/mL and 302 ng·h/mL and the AUCExtra [12, 16] was 29.9% and 7.2% and 1.0%. For the same molecule, the Cmax [12, 16] was 36.5 ng/mL and 61.5 ng/mL and 132 ng/mL, the T1/2 [12, 16] was 270 min and 121 min and 67.8 min and the Tmax [12, 16] was 15 min and 60 min. For the same molecule, the AUCExtra ([12]; PO 10 mg/kg, mean) was 12.7%, the AUC0-inf [12, 17] was 2246 ng·h/mL and 1938 ng·h/mL and the AUCExtra [12, 17] was 0.7% and 1.4% and 3.3%. The Cmax [12, 17] was 1010 ng/mL and 935 ng/mL, the T1/2 [12, 17] was 72 min and 99 min and the Tmax [12, 17] was 0.25 h (2×) and 0.08 h. For the same molecule, the AUCExtra ([12]; SC 10 mg/kg, mean) was 1.8% and the inhibition at 10 µM [13] was 97.8%.
